Reference: PMC10354055, “An optimized Nurr1 agonist provides disease-modifying effects in Parkinson’s disease models” (Nature Communications, 2023)
Values joined by “and” are separate entries in the source; they are usually repeats but may differ in a detail not shown here. Identical values can stand only once.

Columns and labels:
Nurr1-LBD = biological target: T1, Nurr1-LBD (Mus musculus, UniProt Q06219); assay: Luciferase reporter assay, Nurr1-LBD, SK-N-BE(2)C cells; assay type: cell-based
T1 construct: transfected with pCMV-fNurr1, pGAL-Nurr1(LBD), pGAL-Nor1(LBD) or pGAL-Nur77(LBD) and reporter construct; expressed in transfected cells; host or cells: SK-N-BE(2)C (human neuroblastoma), N27-A (rat dopaminergic), MN9D (murine dopaminergic)
T1 sequence (Q06219 360-595 limits assumed): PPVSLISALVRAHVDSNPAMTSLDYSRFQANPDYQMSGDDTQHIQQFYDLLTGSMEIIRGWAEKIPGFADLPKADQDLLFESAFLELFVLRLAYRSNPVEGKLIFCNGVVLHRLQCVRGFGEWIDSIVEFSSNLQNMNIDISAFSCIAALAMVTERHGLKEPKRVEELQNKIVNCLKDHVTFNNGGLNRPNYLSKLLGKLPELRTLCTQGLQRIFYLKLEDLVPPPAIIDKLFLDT
Description: Nurr1 transactivity was normalized to β-galactosidase activity.

N27-A cells [1] = assay: Cellular oxidative stress, DCFDA ROS assay, N27-A cells; assay type: cell-based, rat; conditions: CQ 100 µM, 4A7C-301 1 µM
Procedure: Cellular oxidative stress was detected using the DCFDA Cellular ROS Assay Kit (Abcam) according to the manufacturer’s protocol. Briefly, cells seeded in black clear bottom 96 well plate were stained with DCFDA solution (20 µM) for 45 min at 37 °C.

[2] = test system: mouse ventral mesencephalic (VM) primary cells; assay: Dopaminergic gene expression, qRT-PCR, primary VM cells with 6-OHDA; assay type: cell-based; conditions: VM primary cells, decreased by 6-OHDA; CQ 20 µM, 4A7C-301 0.5 µM
Procedure: Total RNA was extracted using the GeneJET RNA Purification Kit (Thermo Fisher Scientific) and 100 ng of RNA was subjected to cDNA synthesis using Invitrogen Superscript cDNA Synthesis Kit (Invitrogen) according to the manufacturer’s protocol. qRT-PCR was performed using a CFX Connect Real-Time System (Bio-Rad) in a 20 μl volume mixture containing 2X SsoAdvanced Universal SYBR Green Supermix (Bio-Rad), 100 ng/μl of forward and reverse primers, and 1 μl of cDNA sample. Gene expression levels were quantified by the 2^∆∆CT method (Ct of target gene—Ct of glyceraldehyde-3-phosphate dehydrogenase (GAPDH). The following primers were used for qRT-PCR: TH forward: 5′-[…]-3′, reverse: 5′-[…]-3′; DAT forward: 5′-[…]-3′, reverse: 5′-[…]-3′; AADC forward: 5′-[…]-3′, reverse: 5′-[…]-3′; VMAT2 forward: 5′-[…]-3′, reverse: 5′-[…]-3′; c-Ret forward: 5′-[…]-3′, reverse: 5′-[…]-3′; TNFα forward: 5′-[…]-3′; reverse: 5′-[…]-3′; GAPDH, forward 5′-[…]-3′, reverse 5′-[…]-3′.
Briefly, dissected VM brain tissues were collected in ice-cold Dulbecco’s phosphate-buffered saline (DPBS) and then mechanically dissociated using pipettes. Thereafter, dissociated tissues were incubated in 0.05 % Trypsin-EDTA (Invitrogen) for 5 min at 37 °C. The cell suspension was plated onto glass coverslips in 48-well plates pre-coated with […] poly-L-ornithine, 5 μg/ml Fibronectin or 1 μg/ml Laminin at a density of 2.0 × 10^5 cells/cm^2 in differentiation medium (1% heat-inactivated FBS, 2 mM L-glutamine, 50X B27 supplement, 100 μM ascorbic acid and 2 μg/ml bFGF in Neurobasal media).

HeLa cells = assay: Lysosomal pH detection, LysoSensor, HeLa cells; assay type: cell-based
Procedure: (§1) Lysosomal pH was detected as previously described. Briefly, after incubation in EBSS containing BafA1 (10 nM), CQ (20 µM), or 4A7C-301 (1 µM) for 6 h, HeLa and N27-A cells were treated with LysoSensor™ Yellow/Blue DND-160 (5 µM; Life Technology) for 45 min, followed by 2 washes in HEPES buffer (Gibco). Fluorescence images at excitation/emission wavelengths of 360/460 nm and 470/525 nm were taken immediately using a 400 nm dichroic mirror (KEYENCE). The ratio of fluorescence intensities (F360/470) were measured and calculated manually using ImageJ for each cell. The average pH from measuring 5 cells from each of three wells for each treatment group in both HeLa and N27-A cells was calculated by fitting the F360/470 values to a plotted pH calibration curve with KCl/NaCl buffered from pH 3.5 to 7.0 using GraphPad Prism (Version 8.0.2).

N27-A cells [3] = assay: Lysosomal pH detection, LysoSensor, N27-A cells; assay type: cell-based, rat
Procedure: as §1

MPTP-induced male mice = assay: Dopamine ELISA in SN and STR, MPTP-induced mice; assay type: in vivo, mouse; conditions: for DA: individual animals
Procedure: MPTP (Sigma-Aldrich) was intraperitoneally (i.p.) injected (30 mg/kg) for 5 days (Day 1-5). […] To test dyskinetic involuntary behavior, an L-DOPA injected group was included, which received 50 mg/kg of L-DOPA and 15 mg/kg of benserazide (Sigma-Aldrich) (i.p.) for 16 days (Day 1–16). All compounds were administered 6 h post-MPTP injection to avoid any effect of compounds on the MPTP metabolism in the brain. Motor and non-motor related behavior tests were performed on the following days as described in Fig. 4a in an assessor- and observer-blinded fashion. Pre-training and baseline setup for motor-related behaviors were performed 3 days prior to the injections. Mice were sacrificed and subjected to immunohistochemistry. Mice were housed at the Animal Care Facilities of McLean Hospital under a 12-h light/12-h dark cycle, ambient temperature and humidity. Animals were handled in accordance with McLean Hospital’s Institutional Animal Care and Use Committee (Protocol #: 2015N000002) and followed National Institutes of Health guidelines.
(§2) For MPTP-induced mice, the left hemisphere of each group (n = 5) was used for analysis and compared to the vehicle-treated group (VEH). For AAV-αSyn-injected mouse model, the viral vector injected side (left hemisphere; ipsilateral) of each group (n = 3) was compared to the non-injected side (right hemisphere; contralateral).

[4] = test system: AAV-αSyn-induced male mice; assay: Dopamine ELISA in SN and STR, AAV-αSyn-injected mice; assay type: in vivo, mouse
Description: Adeno-associated viruses (AAVs) expressing GFP only or αSyn (wild-type or A53T) were kindly provided by Dr. Yoon Seong Kim from the University of Central Florida. Recombinant AAV vectors were produced using modified pAAV-IRES-hrGFP (Agilent) to express wild-type and mutant human αSyn under control of the CMV promoter. Viral particles (AAV2) were produced at the University of Iowa Viral Vector Core according to standard operating procedures (https://medicine.uiowa.edu/vectorcore/). […] AAV vectors were delivered into the substantia nigra unilaterally by stereotaxic surgery.
as §2

Structure (SMILES): CCN(CC)CCCC(C)Nc1ccnc2cc(Cl)ccc12 (centres unmarked) [CQ, chloroquine]
- EC50 (Nurr1-LBD; Nurr1-LBD and full-length Nurr1, SK-N-BE(2)C cells, Fig. 1d,e): 50 to 70 µM
- EC50 (Nurr1-LBD; Nurr1 activation, Supplementary Table 1, values in µM): 50.2 µM
- MPP+-induced ROS levels (in words) (N27-A cells [1]): significantly reduced
- dopaminergic gene expression (in words) [2]: significantly rescued
- lysosomal pH (in words) (HeLa cells; HeLa, BafA1 10 nM, CQ 20 µM, 4A7C-301 1 µM): significantly increased
- Lysosomal pH (HeLa cells; Supplementary Figure S7d, individual replicates): 5.589 and 4.742 and 6.013 and 6.078 and 6.11 and 5.947 and 5.068 and 6.501 and 6.208 and 6.469 and 5.524 and 5.98 and 6.534 and 5.556
- Lysosomal pH (N27-A cells [3]; Figure 3d, individual replicates): 4.937 and 5.068 and 5.133 and 5.85 and 5.426 and 5.296 and 5.622 and 4.4486 and 5.263 and 4.481 and 5.947
- lysosomal pH (in words) (N27-A cells [3]; N27-A, BafA1 10 nM, CQ 20 µM, 4A7C-301 1 µM): significantly increased
- DA levels in the SN (in words) (MPTP-induced male mice): did so only in the SN
- DA levels in the STR (in words) (MPTP-induced male mice): only in the SN
- DA (MPTP-induced male mice; Supplementary Figure S10b): 49.362 pg/mL and 39.048 pg/mL and 57.173 pg/mL and 55.478 pg/mL and 57.153 pg/mL
- DA (MPTP-induced male mice; Supplementary Figure S10c): 418.063 pg/mL and 471.117 pg/mL and 318.027 pg/mL and 389.411 pg/mL and 268.088 pg/mL
- DA level (% of contralateral side) ([4]; Supplementary Figure S10e, αSynA53T): 32.648 % of contralateral side and 32.350 % of contralateral side and 33.119 % of contralateral side
- DA level (% of contralateral side) ([4]; Supplementary Figure S10e, αSynWT): 73.112 % of contralateral side and 72.962 % of contralateral side and 71.012 % of contralateral side
- DA level (% of contralateral side) ([4]; Supplementary Figure S10f, αSynA53T): 33.096 % of contralateral side and 33.011 % of contralateral side and 33.320 % of contralateral side
- DA level (% of contralateral side) ([4]; Supplementary Figure S10f, αSynWT): 70.155 % of contralateral side and 68.851 % of contralateral side and 68.899 % of contralateral side
- DA levels in the SN and STR (in words) ([4]; αSynWT-mice): significantly increased
